Reference: the supplement of paper PMC7840683
Where a name gives a salt, the structure may show the parent alone.

Tested on: HepaRG
Experiment: LDH release cytotoxicity, % of total lysis control; higher = more cytotoxic
Settings: 48 h
How it was run: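 Eight-point half-log series of test chemicals, the highest at 100 µM, were given in duplicate for 48 h to single-lot HepaRG cells on collagen I-coated 96-well plates in serum-free induction medium with 0.5% DMSO. A Tecan Safire read resorufin fluorescence from CytoTox-ONE as a measure of LDH in 50 µL spent medium, with 0.1% Triton X in total lysis wells. Percent cytotoxicity was normalized to on-plate vehicle and total lysis controls and averaged over the duplicates.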

ClC1=C(Cl)C2(Cl)C3C4C=CC(C4)C3C1(Cl)C2(Cl)Cl (centres undefined) [Aldrin]
Settings	LDH release cytotoxicity [%]
0.03162 µM	-1.03
0.1 µM	-1.22
0.3162278 µM	-1.42
1 µM	-2.25
3.16228 µM	-1.19
10 µM	-0.76
31.6228 µM	-1.01
100 µM	3.93

C=CCC1=C(C)C(OC(=O)C2C(C=C(C)C)C2(C)C)CC1=O (centres undefined) [Allethrin]
Settings	LDH release cytotoxicity [%]
0.03162 µM	0.254
0.1 µM	-0.919
0.3162278 µM	-1.19
1 µM	-0.231
3.16228 µM	-1.87
10 µM	-1.69
31.6228 µM	-0.447
100 µM	-0.904

CCNc1nc(NC(C)C)nc(SC)n1 [Ametryn]
Settings	LDH release cytotoxicity [%]
0.03162 µM	-0.705
0.1 µM	-1.179
0.3162278 µM	-1.07
1 µM	-1.09
3.16228 µM	-1.44
10 µM	-0.756
31.6228 µM	-0.965
100 µM	-0.133

Nc1nc(N)c2nc(CNc3ccc(C(=O)NC(CCC(=O)O)C(=O)O)cc3)cnc2n1 (centres undefined) [Aminopterin]
Settings	LDH release cytotoxicity [%]
0.03162 µM	-11.8
0.1 µM	-7.61
0.3162278 µM	-7.45
1 µM	-7.83
3.16228 µM	-7.31
10 µM	-9.44
31.6228 µM	-9.84
100 µM	-9.19

Cc1ccc(N=CN(C)C=Nc2ccc(C)cc2C)c(C)c1 [Amitraz]
Settings	LDH release cytotoxicity [%]
0.03162 µM	-0.945
0.1 µM	-1.23
0.3162278 µM	-2.67
1 µM	-1.98
3.16228 µM	-2.06
10 µM	-1.45
31.6228 µM	-0.79
100 µM	1.17

NC(=O)O [Ammonium carbamate]
Settings	LDH release cytotoxicity [%]
0.031623 µM	-0.98
0.1 µM	-2.14
0.316228 µM	-3.38
1 µM	-2.11
3.16228 µM	-2.31
10 µM	-1.92
31.6228 µM	-0.516
100 µM	0.311

O=C(O)C(F)(F)C(F)(F)C(F)(F)C(F)(F)C(F)(F)C(F)(F)C(F)(F)F [Ammonium perfluorooctanoate]
Settings	LDH release cytotoxicity [%]
0.03162 µM	-2.46
0.1 µM	-2
0.3162278 µM	-1.7
1 µM	-2.4
3.16228 µM	-1.55
10 µM	-1.1
31.6228 µM	-0.665
100 µM	5.278

Clc1nc(Cl)nc(Nc2ccccc2Cl)n1 [Anilazine]
Settings	LDH release cytotoxicity [%]
0.03162 µM	0.501
0.1 µM	0.704
0.3162278 µM	0.988
1 µM	0.786
3.16228 µM	0.633
10 µM	0.855
31.6228 µM	0.799
100 µM	0.712

c1ccc2cc3ccccc3cc2c1 [Anthracene]
Settings	LDH release cytotoxicity [%]
0.031623 µM	-2.31
0.1 µM	-2.92
0.316228 µM	-3.34
1 µM	-2.01
3.16228 µM	-2.51
10 µM	-2.69
31.6228 µM	-1.53
100 µM	2.42

O=C1c2c(O)cccc2Cc2cccc(O)c21 [Anthralin]
Settings	LDH release cytotoxicity [%]
0.03162 µM	-2.38
0.1 µM	-0.784
0.3162278 µM	-1.25
1 µM	-0.891
3.16228 µM	-0.148
10 µM	-1.12
31.6228 µM	-0.933
100 µM	-0.256

CCCCN1C(=O)C(C(O)C2CCCCC2)NC(=O)C12CCN(Cc1ccc(Oc3ccc(C(=O)O)cc3)cc1)CC2 (centres undefined) [Aplaviroc hydrochloride]
Settings	LDH release cytotoxicity [%]
0.03162 µM	-1.85
0.1 µM	-1.71
0.3162278 µM	-3.23
1 µM	-2.439
3.16228 µM	-3.02
10 µM	0.0163
31.6228 µM	7.4
100 µM	27.4

CC(=O)Oc1ccccc1C(=O)O [Aspirin]
Settings	LDH release cytotoxicity [%]
0.03162 µM	-1.2
0.1 µM	-0.322
0.3162278 µM	0.562
1 µM	-0.207
3.16228 µM	-0.296
10 µM	-0.207
31.6228 µM	0.489
100 µM	2.14

COC(=O)NS(=O)(=O)c1ccc(N)cc1 [Asulam]
Settings	LDH release cytotoxicity [%]
0.03162 µM	-0.269
0.1 µM	-1.42
0.3162278 µM	-0.821
1 µM	-0.262
3.16228 µM	-1.05
10 µM	-0.725
31.6228 µM	-0.233
100 µM	0.635

CCNc1nc(Cl)nc(NC(C)C)n1 [Atrazine]
Settings	LDH release cytotoxicity [%]
0.03162 µM	-1.43
0.1 µM	-1.36
0.3162278 µM	-1.63
1 µM	-2.15
3.16228 µM	-1.57
10 µM	-1.86
31.6228 µM	-1.38
100 µM	-0.59

COP(=O)(OC)SCn1c(=O)oc2cc(Cl)cnc21 [Azamethiphos]
Settings	LDH release cytotoxicity [%]
0.03162 µM	-1.96
0.1 µM	-2.24
0.3162278 µM	-2.14
1 µM	-1.66
3.16228 µM	-2.14
10 µM	-1.74
31.6228 µM	1.89
100 µM	22.6

Cn1cnc([N+](=O)[O-])c1Sc1ncnc2nc[nH]c12 [Azathioprine]
Settings	LDH release cytotoxicity [%]
0.0314647 µM	-0.881
0.0995 µM	-1.48
0.3146466 µM	-1.64
0.995 µM	-0.793
3.14647 µM	1.06
9.95 µM	4.17
31.4647 µM	6.78
99.5 µM	8.21

COP(=S)(OC)SCn1nnc2ccccc2c1=O [Azinphos-methyl]
Settings	LDH release cytotoxicity [%]
0.03162 µM	-0.213
0.1 µM	-0.757
0.3162278 µM	-1.67
1 µM	-2.01
3.16228 µM	-0.975
10 µM	0.0858
31.6228 µM	-0.844
100 µM	0.533

c1ccc(N=Nc2ccccc2)cc1 [Azobenzene]
Settings	LDH release cytotoxicity [%]
0.03162 µM	-1.57
0.1 µM	-1.67
0.3162278 µM	-0.316
1 µM	-2
3.16228 µM	-1.63
10 µM	0.0427
31.6228 µM	1.14
100 µM	3.66

COC=C(C(=O)OC)c1ccccc1Oc1cc(Oc2ccccc2C#N)ncn1 [Azoxystrobin]
Settings	LDH release cytotoxicity [%]
0.03162 µM	-1.32
0.1 µM	-1.84
0.3162278 µM	-2.03
1 µM	-2.35
3.16228 µM	-2.2
10 µM	-1.39
31.6228 µM	-1.83
100 µM	18.63

CNC(=O)Oc1cccc2c1OC(C)(C)O2 [Bendiocarb]
Settings	LDH release cytotoxicity [%]
0.031623 µM	-1.26
0.1 µM	-1.64
0.316228 µM	-0.794
1 µM	-1.67
3.16228 µM	-1.78
10 µM	-2.76
31.6228 µM	-2.289
100 µM	-2.6

CCCCN(CC)c1c([N+](=O)[O-])cc(C(F)(F)F)cc1[N+](=O)[O-] [Benfluralin]
Settings	LDH release cytotoxicity [%]
0.031623 µM	-0.0474
0.1 µM	-1.73
0.316228 µM	-1.78
1 µM	-2.54
3.16228 µM	-2.56
10 µM	-1.12
31.6228 µM	-1.14
100 µM	-0.374

O=C(Nc1ccccc1)c1ccccc1I [Benodanil]
Settings	LDH release cytotoxicity [%]
0.03162 µM	-1.25
0.1 µM	-1.19
0.3162278 µM	-1.59
1 µM	-2.02
3.16228 µM	-0.274
10 µM	1.86
31.6228 µM	5.86
100 µM	12.4

CCCCNC(=O)n1c(NC(=O)OC)nc2ccccc21 [Benomyl]
Settings	LDH release cytotoxicity [%]
0.03162 µM	-1.36
0.1 µM	-0.152
0.3162278 µM	-0.651
1 µM	-2.31
3.16228 µM	-1.18
10 µM	8.93
31.6228 µM	8.73
100 µM	9.79

CC(C)N1C(=O)c2ccccc2NS1(=O)=O [Bentazone]
Settings	LDH release cytotoxicity [%]
0.03162 µM	-0.772
0.1 µM	-0.547
0.3162278 µM	0.0696
1 µM	-0.283
3.16228 µM	-0.149
10 µM	0.303
31.6228 µM	-0.174
100 µM	2.45

c1ccc2cc3c(ccc4ccccc43)cc2c1 [Benz(a)anthracene]
Settings	LDH release cytotoxicity [%]
0.03162 µM	0.322
0.1 µM	-1.2
0.3162278 µM	-1.02
1 µM	-1.2
3.16228 µM	-0.916
10 µM	-0.353
31.6228 µM	-1.51
100 µM	-1.17

ClC(Cl)c1ccccc1 [Benzal chloride]
Settings	LDH release cytotoxicity [%]
0.03162 µM	0.273
0.1 µM	-0.75
0.3162278 µM	-0.461
1 µM	-1.3
3.16228 µM	-1.29
10 µM	0.533
31.6228 µM	1.06
100 µM	2.15

Nc1ccc(-c2ccc(N)cc2)cc1 [Benzidine]
Settings	LDH release cytotoxicity [%]
0.03162 µM	-0.869
0.1 µM	-2.2
0.3162278 µM	-3.09
1 µM	-2.37
3.16228 µM	-2.3
10 µM	0.338
31.6228 µM	-0.733
100 µM	0.306

c1ccc2c(c1)-c1cccc3c1c-2cc1ccccc13 [Benzo(b)fluoranthene]
Settings	LDH release cytotoxicity [%]
0.03162 µM	-1.73
0.1 µM	-2.8
0.3162278 µM	-1.72
1 µM	-2.85
3.16228 µM	-1.02
10 µM	1.06
31.6228 µM	5.33
100 µM	5.52

O=C(O)c1ccccc1 [Benzoic acid]
Settings	LDH release cytotoxicity [%]
0.0324133 µM	-0.341
0.1025 µM	-0.867
0.324134 µM	-1.11
1.025 µM	-0.944
3.24133 µM	-0.925
10.25 µM	0.28
32.4133 µM	0.174
102.5 µM	0.953

ClC(Cl)(Cl)c1ccccc1 [Benzotrichloride]
Settings	LDH release cytotoxicity [%]
0.03162 µM	-0.669
0.1 µM	-1.85
0.3162278 µM	-1.72
1 µM	-1.748
3.16228 µM	-1.92
10 µM	-2.01
31.6228 µM	-1.18
100 µM	-0.246

OCc1ccccc1 [Benzyl alcohol]
Settings	LDH release cytotoxicity [%]
0.03162 µM	-0.977
0.1 µM	-1.47
0.3162278 µM	-1.57
1 µM	-2.41
3.16228 µM	-1.69
10 µM	-1.73
31.6228 µM	-1.32
100 µM	-1.07

CCCCOC(=O)c1ccccc1C(=O)OCc1ccccc1 [Benzyl butyl phthalate]
Settings	LDH release cytotoxicity [%]
0.03162 µM	-0.944
0.1 µM	-1.99
0.3162278 µM	-1.76
1 µM	-1.14
3.16228 µM	-1.707
10 µM	-2.01
31.6228 µM	-0.748
100 µM	0.329

CCCCC(CC)COC(=O)CCCCC(=O)OCc1ccccc1 (centres undefined) [Benzyloctyl adipate]
Settings	LDH release cytotoxicity [%]
0.03162 µM	-0.155
0.1 µM	-0.43
0.3162278 µM	0.101
1 µM	-0.128
3.16228 µM	1.13
10 µM	0.566
31.6228 µM	0.4
100 µM	1.95

O=c1[nH]c2ccc(S(=O)CCN3CCC(Cc4ccc(F)cc4)CC3)cc2o1 (centres undefined) [Besonprodil]
Settings	LDH release cytotoxicity [%]
0.03162 µM	-2.69
0.1 µM	-1.42
0.3162278 µM	-1.87
1 µM	-0.983
3.16228 µM	-0.767
10 µM	-1.16
31.6228 µM	-1.7
100 µM	2.32

COc1ccc(-c2ccccc2)cc1NNC(=O)OC(C)C [Bifenazate]
Settings	LDH release cytotoxicity [%]
0.03162 µM	-1.53
0.1 µM	-1.35
0.3162278 µM	-1.03
1 µM	-1.59
3.16228 µM	-1.11
10 µM	-0.547
31.6228 µM	-0.468
100 µM	1.1

Cc1c(COC(=O)C2C(C=C(Cl)C(F)(F)F)C2(C)C)cccc1-c1ccccc1 (centres undefined) [Bifenthrin]
Settings	LDH release cytotoxicity [%]
0.03162 µM	-1.61
0.1 µM	-2.22
0.3162278 µM	-2.26
1 µM	-2.12
3.16228 µM	-1.77
10 µM	-1.98
31.6228 µM	-2.13
100 µM	-0.496

c1ccc(-c2ccccc2)cc1 [Biphenyl]
Settings	LDH release cytotoxicity [%]
0.03162 µM	-3.64
0.1 µM	-2.69
0.3162278 µM	-2.88
1 µM	-2.22
3.16228 µM	-2.07
10 µM	-1.35
31.6228 µM	-1.49
100 µM	0.572

ClCCOCCCl [Bis(2-chloroethyl) ether]
Settings	LDH release cytotoxicity [%]
0.03162 µM	-2.26
0.1 µM	-1.98
0.3162278 µM	-2.69
1 µM	-2.69
3.16228 µM	-1.96
10 µM	-2.12
31.6228 µM	-2.25
100 µM	-0.123
